Experimental data: patent US20260248799A1, “COMBINATIONS OF RETINALDEHYDE DEHYDROGENASE 1 (RALDH1) INHIBITORS AND IMMUNOSTIMULATORS AND METHODS USING SAME” (The Trustees of the University of Pennsylvania, priority 2023, published 2026)

Key:
SNU398 human HCC cells = experiment: AldeRed (Aldefluor) assay in SNU398 cells; type: cell-based
Procedure: The AldeRed assay (EMD Millipore) was performed according to manufacturer's instructions to identify cells with ALDH activity. In brief, single-cell suspensions of Huh7, Huh1, SNU449, SNU398, HEP3B, PLC, Hepa 1-6, Hep55, and AL458A cultured cells or single-cell suspension generated from enzymatic digestion of tumors generated from transplantation of these cells in mice (as indicated in figure legends) were incubated with a fluorescent and non-toxic ALDH substrate (AldeRed 588-A); the fluorescent product accumulates in cells proportional to their ALDH activity. The amount of fluorescence produced is measured by flow cytometry. The ALDH inhibitor diethylaminobenzaldehyde (DEAB, provided with the AldeRed assay kit) was used as a negative control for background fluorescence assessment.
The Aldefluor assay has been used to identify and isolate cells with high ALDH activities. This assay is based on the principle that ALDH can convert the ALDH-substrate, Bodipy-aminoacetaldehyde (BAAA) into Bodipy-aminoacetate (BAA) which is retained inside the cells. BAAA is uncharged and can diffuse freely into intact viable cells, however BAA cannot cross the membrane due to its net negative charge, which makes remain in the cells and the assay buffer prevents efflux of the BAA from the cells. Therefore, the amount of BAA fluorescence in cells is proportional to ALDH activity and can be measured using a flow cytometer. A specific inhibitor of ALDH, diethylaminobenzaldehyde (DEAB), is used for background fluorescence control.

Nicotinic Acetylcholine = experiment: Safetyscreen: Nicotinic Acetylcholine; type: binding, human; details: 10 μM
Opiate μ(OP3, MOP) = molecular target: T1, Opiate μ(OP3, MOP) (Homo sapiens, UniProt P35372); experiment: Safetyscreen: Opiate μ; type: binding; details: read-out: % Inh. Opiate μ(OP3, MOP)
T1 construct: Eurofins Cereps Panlabs (contract panel)
T1 sequence (P35372 whole entry): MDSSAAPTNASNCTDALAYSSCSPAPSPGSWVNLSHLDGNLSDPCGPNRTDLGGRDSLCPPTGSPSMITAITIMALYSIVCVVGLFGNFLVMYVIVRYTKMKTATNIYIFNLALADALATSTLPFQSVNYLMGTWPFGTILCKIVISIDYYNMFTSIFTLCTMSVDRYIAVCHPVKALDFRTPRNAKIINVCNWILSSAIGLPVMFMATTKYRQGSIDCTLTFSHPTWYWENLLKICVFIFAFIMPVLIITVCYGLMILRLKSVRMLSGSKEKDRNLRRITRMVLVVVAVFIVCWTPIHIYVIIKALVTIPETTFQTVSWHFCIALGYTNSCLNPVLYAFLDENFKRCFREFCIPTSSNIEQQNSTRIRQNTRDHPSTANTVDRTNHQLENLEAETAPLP

Chemokine CCR1 = molecular target: T2, Chemokine CCR1 (Homo sapiens, UniProt P32246); experiment: Safetyscreen: CCR1; type: binding; details: read-out: % Inh. Chemokine CCR1
T2 construct: purchased Eurofins Cereps Panlabs
T2 sequence (P32246 whole entry): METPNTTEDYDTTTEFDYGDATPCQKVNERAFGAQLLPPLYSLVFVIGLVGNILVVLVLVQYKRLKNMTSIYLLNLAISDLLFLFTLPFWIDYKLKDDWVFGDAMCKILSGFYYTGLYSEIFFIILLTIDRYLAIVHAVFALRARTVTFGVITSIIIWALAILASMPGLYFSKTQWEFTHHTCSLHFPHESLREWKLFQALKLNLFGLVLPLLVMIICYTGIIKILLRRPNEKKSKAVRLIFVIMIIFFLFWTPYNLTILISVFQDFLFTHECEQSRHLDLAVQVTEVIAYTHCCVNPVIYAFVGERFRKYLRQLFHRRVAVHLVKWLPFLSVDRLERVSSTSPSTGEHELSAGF

Phosphodiesterase PDE3 = experiment: Safetyscreen: PDE3; type: biochemical, human; details: 10 μM
Muscarinic M2 = molecular target: T3, Muscarinic M2 (Homo sapiens, UniProt P08172); experiment: Safetyscreen: Muscarinic M2; type: binding; details: read-out: % Inh. Muscarinic M2
T3 construct: Eurofins Cereps Panlabs (contract panel)

[1] = test system: GABAA, Ro-15-1788, Hippocampus; experiment: Safetyscreen: GABAA, Ro-15-1788; type: binding, rat; details: 10 μM
[2] = test system: Glycine, Strychnine-Sensitive; experiment: Safetyscreen: Glycine, Strychnine-Sensitive; type: binding, rat; details: 10 μM
SNU398 cells = experiment: In vitro proliferation and viability of human HCC cell lines; type: cell-based; details: SNU398, 1, 10, 100 and 1000 nM
Procedure: FIG. 20D: LC-MS for ATRA on Hepa1-6 (mouse HCC cell line) or SNU398 (human HCC cell line). […] Two independent experiments were performed with at least three replicates per experimental group. Unpaired t test, two-tailed. *, P<0.05; **, P<0.01; ***, P<0.001. […] Cell proliferation was measured by counting live cell numbers at each time point. […] Cell proliferation was measured by counting live cell numbers at each time point.
Cell viability was measured by flow cytometry (FCM) with 7-AAD staining (Y-axis indicates percentage of 7-AAD negative cells).
1×10^4~2×10^5 of Huh7, Huh1, Hepa 1-6, and Hep55 tumor cells were plated in triplicate in 48-well plates or 6-well plates. Viable cell numbers were counted every day for three to four days.

[3] = molecular target: T4, Serotonin (5-Hydroxytryptamine) 5-HT2A (Homo sapiens, UniProt P28223); experiment: Safetyscreen: 5-HT2A; type: binding; details: read-out: % Inh. Serotonin (5-Hydroxytryptamine) 5-HT2A
T4 construct: Eurofins Cereps Panlabs (contract panel)

Vasopressin V1A = molecular target: T5, Vasopressin V1A (Homo sapiens, UniProt P37288); experiment: Safetyscreen: Vasopressin V1A; type: binding; details: read-out: % Inh. Vasopressin V1A
T5 construct: purchased Eurofins Cereps Panlabs

Transporter, GABA = molecular target: T6, Transporter, GABA (Rattus norvegicus, UniProt P23978); experiment: Safetyscreen: GABA transporter; type: binding; details: read-out: % Inh. Transporter, GABA
T6 construct: purchased Eurofins Cereps Panlabs

Glucocorticoid = molecular target: T7, Glucocorticoid (Homo sapiens, UniProt P04150); experiment: Safetyscreen: Glucocorticoid; type: binding; details: read-out: % Inh. Glucocorticoid
T7 construct: purchased Eurofins Cereps Panlabs

[4] = test system: Calcium Channel L-Type, Benzothiazepine; experiment: Safetyscreen: Ca channel L-type, benzothiazepine; type: binding, rat; details: 10 μM
[5] = molecular target: T8, Transporter, Norepinephrine (NET) (Homo sapiens, UniProt P23975); experiment: Safetyscreen: NET; type: binding; details: read-out: % Inh. Transporter, Norepinephrine (NET)
T8 construct: purchased Eurofins Cereps Panlabs

[6] = test system: Calcium Channel L-Type, Phenylalkylamine; experiment: Safetyscreen: Ca channel L-type, phenylalkylamine; type: binding, rat; details: 10 μM
Adrenergic α1B = molecular target: T9, Adrenergic α1B (Rattus norvegicus, UniProt P15823); experiment: Safetyscreen: Adrenergic α1B; type: binding; details: read-out: % Inh. Adrenergic α1B
T9 construct: Eurofins Cerep Panlabs (contract panel)
T9 sequence (P15823 whole entry): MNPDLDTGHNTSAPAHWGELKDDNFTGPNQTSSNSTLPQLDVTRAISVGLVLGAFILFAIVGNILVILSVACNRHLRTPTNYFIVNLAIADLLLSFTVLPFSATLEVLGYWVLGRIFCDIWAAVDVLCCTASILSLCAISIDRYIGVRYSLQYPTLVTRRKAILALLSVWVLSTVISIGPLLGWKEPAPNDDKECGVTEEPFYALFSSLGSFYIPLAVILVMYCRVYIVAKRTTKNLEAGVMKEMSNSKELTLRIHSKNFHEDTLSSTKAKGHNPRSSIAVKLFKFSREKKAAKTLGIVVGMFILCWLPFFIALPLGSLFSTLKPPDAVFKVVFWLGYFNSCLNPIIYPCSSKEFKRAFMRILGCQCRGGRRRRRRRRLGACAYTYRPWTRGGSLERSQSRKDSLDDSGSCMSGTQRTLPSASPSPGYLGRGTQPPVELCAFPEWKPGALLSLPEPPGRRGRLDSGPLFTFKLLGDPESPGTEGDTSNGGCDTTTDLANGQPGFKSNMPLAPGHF

Melanocortin MC4 = molecular target: T10, Melanocortin MC4 (Homo sapiens, UniProt P32245); experiment: Safetyscreen: MC4; type: binding; details: read-out: % Inh. Melanocortin MC4
T10 construct: Eurofins Cereps Panlabs (contract panel)

[7] = molecular target: T11, Leukotriene, Cysteinyl CysLT1 (Homo sapiens, UniProt Q9Y271); experiment: Safetyscreen: CysLT1; type: binding; details: read-out: % Inh. Leukotriene, Cysteinyl CysLT1
T11 construct: purchased Eurofins Cereps Panlabs
T11 sequence (Q9Y271 whole entry): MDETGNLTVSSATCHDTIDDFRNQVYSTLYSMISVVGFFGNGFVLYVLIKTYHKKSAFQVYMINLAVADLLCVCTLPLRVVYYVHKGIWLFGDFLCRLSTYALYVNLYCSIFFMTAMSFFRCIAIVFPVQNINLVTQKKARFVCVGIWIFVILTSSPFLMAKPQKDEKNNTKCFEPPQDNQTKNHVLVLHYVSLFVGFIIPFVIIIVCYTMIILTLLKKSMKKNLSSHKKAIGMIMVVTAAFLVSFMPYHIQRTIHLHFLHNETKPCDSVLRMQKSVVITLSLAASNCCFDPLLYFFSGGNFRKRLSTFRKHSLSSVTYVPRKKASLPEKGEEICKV

[8] = molecular target: T12, Serotonin (5-Hydroxytryptamine) 5-HT1B (Homo sapiens, UniProt P28222); experiment: Safetyscreen: 5-HT1B; type: binding; details: read-out: % Inh. Serotonin (5-Hydroxytryptamine) 5-HT1B
T12 construct: Eurofins Cereps Panlabs (contract panel)
T12 sequence (P28222 whole entry): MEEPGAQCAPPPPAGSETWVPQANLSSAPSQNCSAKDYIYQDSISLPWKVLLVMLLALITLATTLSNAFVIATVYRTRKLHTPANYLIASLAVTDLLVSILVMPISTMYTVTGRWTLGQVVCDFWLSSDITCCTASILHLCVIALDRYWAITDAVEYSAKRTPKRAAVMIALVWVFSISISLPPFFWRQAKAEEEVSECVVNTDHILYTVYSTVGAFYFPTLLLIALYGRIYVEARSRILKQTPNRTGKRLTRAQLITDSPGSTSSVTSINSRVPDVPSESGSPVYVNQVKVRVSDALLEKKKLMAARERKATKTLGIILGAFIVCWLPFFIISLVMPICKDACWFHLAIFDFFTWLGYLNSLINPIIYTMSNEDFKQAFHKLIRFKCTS

Potassium Channel [KATP] = molecular target: T13, Potassium Channel [KATP] (Cricetus cricetus, UniProt Q09427); experiment: Safetyscreen: Potassium Channel KATP; type: binding, hamster; details: read-out: % Inh. Potassium Channel [KATP]
T13 construct: Eurofins Cereps Panlabs (contract panel)
T13 sequence (Q09427 whole entry): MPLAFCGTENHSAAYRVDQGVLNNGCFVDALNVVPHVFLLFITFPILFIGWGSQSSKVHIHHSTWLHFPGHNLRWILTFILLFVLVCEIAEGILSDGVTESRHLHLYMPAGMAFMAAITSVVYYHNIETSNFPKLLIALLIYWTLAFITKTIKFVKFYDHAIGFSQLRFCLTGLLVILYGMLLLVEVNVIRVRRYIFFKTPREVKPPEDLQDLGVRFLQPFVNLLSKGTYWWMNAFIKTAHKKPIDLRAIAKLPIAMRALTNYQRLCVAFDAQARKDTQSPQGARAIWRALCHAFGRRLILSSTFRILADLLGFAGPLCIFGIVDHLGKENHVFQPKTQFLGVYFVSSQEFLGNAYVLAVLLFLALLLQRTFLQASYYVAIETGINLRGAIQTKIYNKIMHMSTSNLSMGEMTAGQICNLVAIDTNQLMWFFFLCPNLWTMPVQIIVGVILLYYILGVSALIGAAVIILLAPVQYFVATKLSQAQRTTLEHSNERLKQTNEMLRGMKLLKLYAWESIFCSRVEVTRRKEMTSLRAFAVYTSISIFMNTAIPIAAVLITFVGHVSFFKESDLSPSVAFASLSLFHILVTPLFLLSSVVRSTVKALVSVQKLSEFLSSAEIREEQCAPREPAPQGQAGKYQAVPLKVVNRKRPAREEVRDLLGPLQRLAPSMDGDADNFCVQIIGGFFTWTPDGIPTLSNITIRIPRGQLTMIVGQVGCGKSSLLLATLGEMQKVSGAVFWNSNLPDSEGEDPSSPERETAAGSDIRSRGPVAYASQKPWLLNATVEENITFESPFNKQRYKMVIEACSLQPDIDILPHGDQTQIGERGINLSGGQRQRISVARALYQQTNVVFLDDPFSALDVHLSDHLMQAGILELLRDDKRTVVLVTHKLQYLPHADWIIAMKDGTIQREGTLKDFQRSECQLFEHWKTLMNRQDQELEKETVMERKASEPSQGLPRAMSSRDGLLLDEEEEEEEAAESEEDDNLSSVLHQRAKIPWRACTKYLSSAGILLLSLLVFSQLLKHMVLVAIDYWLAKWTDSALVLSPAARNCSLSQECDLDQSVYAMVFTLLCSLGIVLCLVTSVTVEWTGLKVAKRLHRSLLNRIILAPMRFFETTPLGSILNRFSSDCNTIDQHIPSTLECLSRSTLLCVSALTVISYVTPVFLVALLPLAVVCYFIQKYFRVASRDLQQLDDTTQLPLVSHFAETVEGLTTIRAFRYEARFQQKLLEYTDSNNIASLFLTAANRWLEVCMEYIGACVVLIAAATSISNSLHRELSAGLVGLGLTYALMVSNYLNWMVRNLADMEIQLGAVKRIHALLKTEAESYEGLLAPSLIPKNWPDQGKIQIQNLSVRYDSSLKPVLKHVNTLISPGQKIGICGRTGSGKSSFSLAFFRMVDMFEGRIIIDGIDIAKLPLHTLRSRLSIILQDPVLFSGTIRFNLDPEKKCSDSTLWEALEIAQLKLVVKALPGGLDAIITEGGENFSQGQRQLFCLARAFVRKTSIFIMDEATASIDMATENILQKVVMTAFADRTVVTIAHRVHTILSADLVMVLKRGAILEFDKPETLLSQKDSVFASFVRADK

Cannabinoid CB2 = molecular target: T14, Cannabinoid CB2 (Homo sapiens, UniProt P34972); experiment: Safetyscreen: CB2; type: binding; details: read-out: % Inh. Cannabinoid CB2
T14 construct: purchased Eurofins Cereps Panlabs
T14 sequence (P34972 whole entry): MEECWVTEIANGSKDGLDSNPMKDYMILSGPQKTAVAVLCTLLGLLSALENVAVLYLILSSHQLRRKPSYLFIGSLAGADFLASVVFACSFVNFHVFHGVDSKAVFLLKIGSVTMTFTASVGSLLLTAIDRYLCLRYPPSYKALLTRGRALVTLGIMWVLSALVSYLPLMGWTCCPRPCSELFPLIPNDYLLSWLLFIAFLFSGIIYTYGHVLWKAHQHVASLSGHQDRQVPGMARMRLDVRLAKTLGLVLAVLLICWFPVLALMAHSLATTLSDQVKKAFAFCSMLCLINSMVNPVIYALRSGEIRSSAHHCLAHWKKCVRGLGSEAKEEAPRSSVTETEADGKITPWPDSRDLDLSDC

[9] = molecular target: T15, Peptidase, CTSG (Cathepsin G) (Homo sapiens, UniProt P08311); experiment: Safetyscreen: Cathepsin G; type: biochemical; details: read-out: % Inh. Peptidase, CTSG (Cathepsin G)
T15 construct: Eurofins Cerep Panlabs (contract panel)
T15 sequence (P08311 21-244): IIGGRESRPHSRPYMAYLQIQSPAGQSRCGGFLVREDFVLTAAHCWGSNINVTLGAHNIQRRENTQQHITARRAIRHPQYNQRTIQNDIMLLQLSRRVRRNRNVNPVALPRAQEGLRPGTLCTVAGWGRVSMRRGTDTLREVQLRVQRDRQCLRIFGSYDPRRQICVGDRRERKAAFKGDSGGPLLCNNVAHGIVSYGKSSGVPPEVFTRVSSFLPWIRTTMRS

Cyclooxygenase COX-2 = molecular target: T16, Cyclooxygenase COX-2 (Homo sapiens, UniProt P35354); experiment: Safetyscreen: COX-2; type: biochemical; details: read-out: % Inh. Cyclooxygenase COX-2
T16 construct: Eurofins Cerep Panlabs (contract panel)
T16 sequence (P35354 18-604): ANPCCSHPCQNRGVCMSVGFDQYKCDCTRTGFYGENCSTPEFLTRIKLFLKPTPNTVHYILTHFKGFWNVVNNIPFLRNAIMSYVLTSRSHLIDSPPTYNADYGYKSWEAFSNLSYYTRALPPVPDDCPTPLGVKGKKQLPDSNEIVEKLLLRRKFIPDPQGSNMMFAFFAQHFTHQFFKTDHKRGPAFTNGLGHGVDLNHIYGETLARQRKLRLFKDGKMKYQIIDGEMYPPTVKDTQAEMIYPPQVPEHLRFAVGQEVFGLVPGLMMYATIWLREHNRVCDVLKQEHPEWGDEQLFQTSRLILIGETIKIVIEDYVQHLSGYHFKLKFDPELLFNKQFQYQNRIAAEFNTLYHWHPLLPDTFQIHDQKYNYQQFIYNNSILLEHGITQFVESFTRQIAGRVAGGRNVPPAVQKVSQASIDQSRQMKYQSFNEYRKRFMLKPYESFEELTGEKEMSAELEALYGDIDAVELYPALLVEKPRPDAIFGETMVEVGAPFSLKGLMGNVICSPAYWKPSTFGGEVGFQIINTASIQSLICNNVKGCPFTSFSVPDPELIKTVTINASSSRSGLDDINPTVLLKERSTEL

SMILES: CS(=O)(=O)N1CCN(C(=O)c2cnc3ccc(F)cc3c2N2CCC(C#N)(c3ccccc3)CC2)CC1 [Compound C-86, 1-(6-fluoro-3-(4-(methylsulfonyl)piperazine-1-carbonyl)quinolin-4-yl)-4-phenylpiperidine-4-carbonitrile]
- RALDH activity, Aldered assay, in HCC cells (SNU398 human HCC cells; FIGS. 7-8): significantly reduced RALDH activity
- RALDH activity as detected by Aldered (Aldefluor) assay (SNU398 human HCC cells; SNU398 cells in vitro, 100 nM, DMSO control): abrogated
- % Inh. Nicotinic Acetylcholine (Nicotinic Acetylcholine): 5%
- inhibition at 10 µM (Opiate μ(OP3, MOP)): 19%
- inhibition at 10 µM (Chemokine CCR1): 18%
- % Inh. Phosphodiesterase PDE3 (Phosphodiesterase PDE3): −23%
- inhibition at 10 µM (Muscarinic M2): 4%
- % Inh. GABAA, Ro-15-1788, Hippocampus [1]: −7%
- % Inh. Glycine, Strychnine-Sensitive [2]: 23%
- HCC cell growth in vitro (SNU398 cells): did not inhibit HCC cell growth in vitro
- inhibition at 10 µM [3]: 36%
- inhibition at 10 µM (Vasopressin V1A): -13%
- inhibition at 10 µM (Transporter, GABA): 4%
- inhibition at 10 µM (Glucocorticoid): 9%
- % Inh. Calcium Channel L-Type, Benzothiazepine [4]: −3%
- inhibition at 10 µM [5]: 35%
- % Inh. Calcium Channel L-Type, Phenylalkylamine [6]: 21%
- inhibition at 10 µM (Adrenergic α1B): 6%
- inhibition at 10 µM (Melanocortin MC4): 13%
- inhibition at 10 µM [7]: 5%
- inhibition at 10 µM [8]: -21%
- inhibition at 10 µM (Potassium Channel [KATP]): 28%
- inhibition at 10 µM (Cannabinoid CB2): 21%
- inhibition at 10 µM [9]: 0%
- inhibition at 10 µM (Cyclooxygenase COX-2): 0%
